Measured values published in ChEMBL document CHEMBL3867453, “Total Synthesis of (±)-Isoperbergins and Correction of the Chemical Structure of Perbergin” (2016).
In brackets after ≈: the same amount, converted by molar mass.

Experiments:
Assay type in all cases: functional
[1] = test system: Mycolicibacterium smegmatis; assay: Antibacterial activity against Mycobacterium smegmatis after 48 hrs by MTT based microdilution assay
Escherichia coli = assay: Antibacterial activity against Escherichia coli after 24 hrs by MTT based microdilution assay
Staphylococcus aureus = assay: Antibacterial activity against Staphylococcus aureus after 24 hrs by MTT based microdilution assay
Pseudomonas aeruginosa = assay: Antibacterial activity against Pseudomonas aeruginosa after 24 hrs by MTT based microdilution assay
Rhodococcus fascians = assay: Antibacterial activity against Rhodococcus fascians after 24 hrs by MTT based microdilution assay; conditions: Rhodococcoides fascians

`CN[C@@H]1[C@@H](O[C@H]2O[C@H](CO)[C@@H](N)[C@H](O)[C@H]2O)O[C@H]2C[C@@H](N)[C@@H](O[C@H]3[C@H](O)[C@@H](O)[C@H](N)C[C@@H]3N)O[C@@H]2[C@@H]1O` was tested, and the MIC [1] was 2.5 mg/L (≈ 4.63 µM), the MIC (Escherichia coli) was > 50 mg/L and the MIC (Staphylococcus aureus) was 30 mg/L (≈ 55.6 µM). For the same molecule, the MIC (Pseudomonas aeruginosa) was 50 mg/L (≈ 92.7 µM) and the MIC (Rhodococcus fascians) was 50 mg/L (≈ 92.7 µM).

`COc1ccc(C2COc3c(C/C=C(/C)CCC=C(C)C)c(O)cc(O)c3C2=O)c(O)c1O` (racemic) was tested, and the MIC [1] was 5 mg/L (≈ 11 µM), the MIC (Escherichia coli) was > 50 mg/L and the MIC (Staphylococcus aureus) was 5 mg/L (≈ 11 µM). The MIC (Pseudomonas aeruginosa) was > 50 mg/L and the MIC (Rhodococcus fascians) was 12.5 mg/L (≈ 27.5 µM).

With `COc1ccc(C2COc3cc(O)cc(O)c3C2=O)c(O)c1O` (racemic) the MIC [1] was > 50 mg/L, the MIC (Escherichia coli) was > 50 mg/L and the MIC (Staphylococcus aureus) was > 50 mg/L. For the same molecule, the MIC (Pseudomonas aeruginosa) was > 50 mg/L and the MIC (Rhodococcus fascians) was > 50 mg/L.

For `CC1(C)S[C@@H]2[C@H](NC(=O)[C@H](N)c3ccccc3)C(=O)N2[C@H]1C(=O)O` [AMPICILLIN], the MIC [1] was > 50 mg/L, the MIC (Escherichia coli) was < 5 mg/L and the MIC (Staphylococcus aureus) was > 50 mg/L. The MIC (Pseudomonas aeruginosa) was < 5 mg/L and the MIC (Rhodococcus fascians) was 20 mg/L (≈ 57.2 µM).

In the case of `COc1ccc(C2COc3c(C/C=C(\C)CCC=C(C)C)c(O)cc(O)c3C2=O)c(O)c1O` (racemic), the MIC [1] is reported as 5 mg/L (≈ 11 µM), the MIC (Escherichia coli) is reported as > 50 mg/L and the MIC (Staphylococcus aureus) is reported as 5 mg/L (≈ 11 µM). The MIC (Pseudomonas aeruginosa) was > 50 mg/L and the MIC (Rhodococcus fascians) was 12.5 mg/L (≈ 27.5 µM).
